Test results taken from patent publication US10208007B2, “Use of strigolactones and strigolactone analogs for treating proliferative conditions” (The State of Israel, Ministry of Agriculture & Rural …, priority 2011, dated 2019).

Key:
MCF-7 cells = assay: Stability in aqueous solution (media, activity on MCF-7 by XTT); assay type: physicochemical, human; conditions: stored at 4° C. for 3 days
Protocol: To assess strigolactone analogs stability in aqueous solution, each strigolactone analog was diluted to the desired concentration in media and stored at 4° C. for 3 days, at which time the strigolactone analog containing media was overlayed onto MCF-7 cells seeded into 96 well plates in phenol free DMEM supplemented with 5% charcoal stripped serum. After 3 days growth and viability was assessed (XTT, ATCC) and results compared to cells treated with freshly diluted strigolactone analog (FIG. 15) (absorbance readings presented as % of controls. Average+SD). […] For this reason all strigolactone analogs were diluted fresh from acetone stocks into media to desired concentrations and overlayed onto cells within 1 hour. Where necessary, media was refreshed every 3 days.

pP38 = assay: Immunoblot with densitometric quantification; assay type: cell-based, human
Protocol: Protein concentration was determined using the BCA Protein Assay (Pierce), and 20-50 μg of lysate were separated in a 4-12% SDS-PAGE gel. After transfer, membranes were blocked for 15-30 min at room temperature in 5% BSA (Sigma) in Tris-buffered saline containing 0.1% Tween-20. Primary antibody was incubated for either 1.5 hours at room temperature or overnight at 4° C. Secondary antibody was incubated for 30-45 min at room temperature, and proteins were visualized with West Pico Stable (Pierce). […]
Densitometric quantifications were carried out using ImageJ software (NIMH).
To investigate the signaling mechanisms elicited by strigolactone analogs in cancer cells, MDA-MB-231, DU145 and HCT116 cells were treated with strigolactone analogs for 1, 4 or 8 hours and lysates were analyzed by immuno-blotting. […]
Immunoblot analysis of MDA-MB-231 and HCT116 cells treated with strigolactone analogs was performed. […] At 4 hours and 8 hours, pP38 levels increased 5 fold and 13 fold respectively following ST-362 treatment compared to vehicle controls (FIG. 13B—a bar graph showing densitometric quantification of pP38 levels as shown in FIG. 13A). […]

Candida oleophila = assay: Yeast cell culture growth (OD); assay type: cell-based; conditions: 10 μM, apparent 8 hours after application
Protocol: Saccharomyces cerevisiae and Candida oleophila yeast cells were grown overnight in a reach nutrient media at 28° C., at 150 rpm. Following, they were diluted to 0.4 OD in low nutrient media (Lily) and were divided into 96 wells. The cells were treated with GR-24 or ST-362, at the indicated concentrations. Cell culture growth was monitored every hour for 17 hours, at 28° C., with gentle shake before each OD read. OD was determined using fluorometer. Statistical differences between curves were analyzed using compareGrowthCurves function from the Statistical Modeling package, statmod (http://bioinf.wehi.edu.au/software/compareCurves/), significance was determined once P≤0.05.

[1] = tested on: MCF-7 secondary mammospheres; assay: cells; assay type: cell-based; conditions: Homo sapiens, MCF7, 120 h
Protocol: Adherent cells were gently trypsinized, (0.05% trypsin/EDTA) washed twice in PBS and filtered through a […] cell sieve to obtain a single cell suspensions. Cells were diluted to a concentration of 10,000 cell/ml in serum-free phenol-red free MEBM (MEGM Bulletkit, Lonza) supplemented with 5 μg/ml bovine insulin, 20 ng/ml recombinant epidermal growth factor, 20 ng/ml basic fibroblast growth factor (Gibco), 1×B27 supplement, 0.5 μg/ml hydrocortisone (MEGM Bulletkit, Lonza). For MDA-MB-231 mammosphere cultures serum-free phenol red-free CnT-27 medium with growth additives (CellnTEC Advanced cell systems, Bern, Switzerland) was used as previously described. 0.1 ml was seeded per well of a Ultralow attachment 96 well plates. The following day the indicated doses of GR-24 (ppm) or vehicle alone (0.6% acetone f/c) were added. Media was replenished every 3-4 days. Self-renewal capacity of the mammospheres was determined by re-plating and producing further generations of mammospheres. Secondary mammospheres were cultivated by dissociation (trypsinization with gently vortexing) of 10-14 day old primary mammospheres. Single cell suspensions were obtained as described above.
Mammosphere viability was assessed by XTT assay (ATCC). 5 days after addition of the indicated concentrations of GR-24, cell viability was determined. […] To further investigate GR-24 induced inhibition of mammosphere formation, the expression of breast stem cells markers were examined.

[2] = tested on: breast cancer cells both luminal (estrogen receptor positive) and basal (estrogen receptor negative); assay: IC50 by number of cells per well versus control cultures; assay type: cell-based
Protocol: The IC50 values are defined herein as that concentration of active ingredient at which the number of cells per well at the end of the incubation period is only 50% of the number of cells in the control cultures. The IC50 values thus determined are, for the compounds of formula II, approximately from 0.1 to 50 μmoliliter.

[3] = read-out: Mammosphere viability

## CC1=CC(O/C=C2\Cc3c(n(C)c4ccccc34)C2=O)OC1=O (racemic) [EG-5, (±) (2E)-4-methyl-2-(4-methyl-5-oxo-2,5-dihydrofuran-2-yloxymethylene)-1,4-dihydro-2H-cyclopenta[b]indol-3-one]
MCF-7 cells
  Stability in aqueous solution: activity versus freshly diluted analog: completely failed to inhibit MCF-7 growth

## CC1=CC(O/C=C2/C(=O)c3c(c4cc(-c5scc6c5OCCO6)ccc4n3C)C2C)OC1=O (centres unmarked) [ST-362, (2E)-2-[(2,5-dihydro-4-methyl-5-oxofuran-2-yloxy)methylene]-1,2-dihydro-7-(2,3-dihydrothieno[3,4-b][1,4]dioxin-7-yl)-1,4-dimethyl-cyclopenta[b]indole-3-(4H)-one]
pP38; MDA-MB-231, 4 hours
  pP38 levels increase compared to vehicle controls: 5 fold
pP38; MDA-MB-231, 8 hours
  pP38 levels increase compared to vehicle controls: 13 fold
Candida oleophila
  Cell culture growth: reduction of cell culture growth

## CC1=C[C@H](O/C=C2/C(=O)O[C@@H]3c4ccccc4C[C@H]23)OC1=O (relative stereo) [GR-24, (3aR*,8bS*,E)-3-(((R*)-4-methyl-5-oxo-2,5-dihydrofuran-2-yloxy)methylene)-3,3a,4,8b-tetrahydro-2H-indeno[1,2-b]furan-2-one]
[1]; [3]
  viability at 2.5 ppm: 68.6%
  viability at 5 ppm: 16.4%
[1]; read-out: Reduction of viability
  cytotoxicity at 5 ppm: ~80%
[2]
  IC50 value: in the range of micromolar concentration
